From patent publication US20240343704A1, “HALO-SUBSTITUTED AMINO PYRIDINE COMPOUNDS AS INHIBITORS OF THE HAEMATOPOIETIC PROGENITOR KINASE 1 (HPK1)” (priority 2021, published 2024) come the findings set out here.

Experiment [1] concerns the target T1, Recombinant (1-346) HPK1 (h) (Homo sapiens, UniProt Q92918).
T1 construct: Recombinant (1-346) HPK1 (h) is incubated with 8 mM MOPS pH 7.0
T1 sequence (Q92918 1-346): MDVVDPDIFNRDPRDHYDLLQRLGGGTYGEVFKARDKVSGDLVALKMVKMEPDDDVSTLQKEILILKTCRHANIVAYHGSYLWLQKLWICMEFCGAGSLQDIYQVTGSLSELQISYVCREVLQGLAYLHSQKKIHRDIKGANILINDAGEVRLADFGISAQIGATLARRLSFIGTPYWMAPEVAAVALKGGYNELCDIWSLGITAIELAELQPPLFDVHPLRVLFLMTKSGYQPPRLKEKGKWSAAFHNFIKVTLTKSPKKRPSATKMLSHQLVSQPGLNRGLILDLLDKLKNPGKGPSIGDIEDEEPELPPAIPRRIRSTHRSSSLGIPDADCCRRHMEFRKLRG
Nature of the experiment: HPK1 Human STE Kinase Enzymatic Radiometric Assay. It counts as biochemical. As to conditions: read-out: HPK1 IC50 nM Range*. Here is the method: A stock solution of 10 mM of test compound is prepared in DMSO. The compound plate was prepared by 3-fold and 9-point serial dilutions. […] The reaction is initiated by The addition of the Mg/ATP mix. After incubation for 40 minutes at RT, the reaction is stopped by the addition of phosphoric acid to a concentration of 0.5%.

Another experiment addresses Lck (h) (Homo sapiens, UniProt P06239). As to the kind of experiment: Lck Human  Kinase Enzymatic Radiometric Assay. Particulars: read-out: Lck IC50 nM Range*. The experiment is classed as biochemical. Here is the method: Lck (h) is incubated with 50 mM Tris pH 7.5, 0.1 mM EGTA, 0.1 mM Na3VO4, 250 uM KVEKIGEGTYGVVYK (Cdc2 peptide), 10 mM MgAcetate and [gamma-33P]-ATP (specific activity and concentration as required). The reaction is initiated by the addition of the Mg/ATP mix. After incubation for 40 minutes at RT, the reaction is stopped by the addition of phosphoric acid to a concentration of 0.5%. 10 uL of the reaction is then spotted onto a P30 filtermat and washed four times for 4 minutes in 0.425% phosphoric acid and once in methanol prior to drying and scintillation counting. For more details on the kinase assay procedures see: Gao, Y. et. al.; Biochem J., 451 (2): 313-328, 2013.

Sequence of Lck (h) (P06239 whole entry): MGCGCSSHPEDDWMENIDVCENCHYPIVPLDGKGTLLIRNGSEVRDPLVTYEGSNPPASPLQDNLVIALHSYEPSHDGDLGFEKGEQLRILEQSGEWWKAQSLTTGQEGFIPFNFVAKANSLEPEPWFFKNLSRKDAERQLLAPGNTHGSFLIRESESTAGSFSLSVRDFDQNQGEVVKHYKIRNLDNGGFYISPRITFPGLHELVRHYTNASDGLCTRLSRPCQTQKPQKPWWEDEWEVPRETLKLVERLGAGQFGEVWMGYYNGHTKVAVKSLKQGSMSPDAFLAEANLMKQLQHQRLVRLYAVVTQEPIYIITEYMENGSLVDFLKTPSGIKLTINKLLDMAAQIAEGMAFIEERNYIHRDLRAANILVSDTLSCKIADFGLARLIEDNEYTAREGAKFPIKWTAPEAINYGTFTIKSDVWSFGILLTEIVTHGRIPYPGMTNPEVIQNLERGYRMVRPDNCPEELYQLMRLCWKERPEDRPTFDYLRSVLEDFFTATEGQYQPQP

Regarding `Nc1nc(F)c(-c2ccc(N3CCN4CCOCC4C3)cc2)cc1-c1ccc2c(c1)CCNC2=O` (centres unmarked) [I-23, 6-(2-amino-6-fluoro-5-(4-(hexahydropyrazino[2,1-c][1,4]oxazin-8(1H)-yl)phenyl)pyridin-3-yl)-3,4-dihydroisoquinolin-1(2H)-one], the concentration for half-maximal inhibition (IC50) in experiment [1] is 0.1 to 10 nM; on Lck (h) it was greater than 1000 nM.

In the case of `CO[C@@H](C)CN1CCN(c2ccc(-c3cc(-c4ccc5c(c4)CCNC5=O)c(N)nc3F)cc2)CC1` [I-24, (S)-6-(2-amino-6-fluoro-5-(4-(4-(2-methoxypropyl)piperazin-1-yl)phenyl)pyridin-3-yl)-3,4-dihydroisoquinolin-1(2H)-one], the IC50 in experiment [1] is 0.1 to 10 nM; on Lck (h), greater than 1000 nM.

With `CO[C@H](C)CN1CCN(c2ccc(-c3cc(-c4ccc5c(c4)CCNC5=O)c(N)nc3F)cc2)CC1` [I-25, (R)-6-(2-amino-6-fluoro-5-(4-(4-(2-methoxypropyl)piperazin-1-yl)phenyl)pyridin-3-yl)-3,4-dihydroisoquinolin-1(2H)-one], the IC50 in experiment [1] was 0.1 to 10 nM; on Lck (h), greater than 1000 nM.

On to `Nc1nc(F)c(-c2ccc(N3CCOCC3)cn2)cc1-c1ccc2c(c1)CCNC2=O` [I-26, 6-(6′-amino-2′-fluoro-5-morpholino-[2,3′-bipyridin]-5′-yl)-3,4-dihydroisoquinolin-1(2H)-one], for which the IC50 in experiment [1] is 0.1 to 10 nM; at Lck (h) it was greater than 1000 nM.

As to `CN1CCN(c2ccc(-c3cc(-c4ccc5c(c4)CCNC5=O)c(N)nc3F)nc2)CC1` [I-27, 6-(6′-amino-2′-fluoro-5-(4methylpiperazin-1-yl)-[2,3′-bipyridin]-5′-yl)-3,4dihydroisoquinolin-1(2H)-one acetate], the IC50 is 0.1 to 10 nM in experiment [1] and greater than 1000 nM on Lck (h).

With `C[Si](C)(O)c1ccc(-c2cc(-c3ccc4c(c3)CCNC4=O)c(N)nc2F)cc1` [I-28, 6-(2-amino-6-fluoro-5-(4-(hydroxydimethylsilyl)phenyl)pyridin-3-yl)-3,4-dihydroisoquinolin-1(2H)-one], the IC50 was 11 to 100 nM in experiment [1] and greater than 1000 nM at Lck (h).

On to `COCCN1CCN(c2ccc(-c3cc(-c4ccc5c(c4)CCNC5=O)c(N)nc3F)cc2)CC1` [I-29, 6-(2-amino-6-fluoro-5-(4-(4-(2-methoxyethyl)piperazin-1-yl)phenyl)pyridin-3-yl)-3,4-dihydroisoquinolin-1(2H)-one], for which the IC50 was 0.1 to 10 nM in experiment [1] and greater than 1000 nM on Lck (h).

Consider `Nc1nc(F)c(-c2ccc(C3CCNCC3)cc2)cc1-c1ccc2c(c1)CCNC2=O` [I-30, 6-(2-amino-6-fluoro-5-(4-(piperidin-4-yl)phenyl)pyridin-3-yl)-3,4-dihydroisoquinolin-1(2H)-one], for which the IC50 was 0.1 to 10 nM in experiment [1] and greater than 1000 nM at Lck (h).

On to `CN1CCN(c2ccc(-c3cc(-c4ccc5c(c4)CCNC5=O)c(N)nc3F)cc2)C=N1` [I-31, 6-(2-amino-6-fluoro-5-(4-(1-methyl-5,6-dihydro-1,2,4-triazin-4(1H)-yl)phenyl)pyridin-3-yl)-3,4-dihydroisoquinolin-1(2H)-one], for which the concentration for half-maximal inhibition (IC50) in experiment [1] was 0.1 to 10 nM; at Lck (h), greater than 1000 nM.

As for `CN1CCN(c2ccc(-c3cc(-c4ccc5c(c4)CNC5=O)c(N)nc3F)cc2)CC1` [I-32, 5-(2-amino-6-fluoro-5-(4-(4-methylpiperazin-1-yl)phenyl)pyridin-3-yl)isoindolin-1-one], the IC50 in experiment [1] was 11 to 100 nM; at Lck (h), greater than 1000 nM.

With `CN1CCN(c2ccc(-c3cc(-c4ccc5c(c4)C(C)(C)NC5=O)c(N)nc3F)cc2)CC1` [I-33, 5-(2-amino-6-fluoro-5-(4-(4-Methylpiperazin-1-yl)phenyl)pyridin-3-yl)-3,3-dimethylisoindolin-1-one], the IC50 is 0.1 to 10 nM in experiment [1] and greater than 1000 nM at Lck (h).

`CC(=O)N1CCC(Oc2ccc(-c3cc(-c4ccc5c(c4)CCNC5=O)c(N)nc3F)cc2)CC1` [I-34, 6-(5-(4-((1-acetylpiperidin-4-yl)oxy)phenyl)-2-amino-6-fluoropyridin-3-yl)-3,4-dihydroisoquinolin-1(2H)-one]: the concentration for half-maximal inhibition (IC50) in experiment [1] is 0.1 to 10 nM; on Lck (h) it was greater than 1000 nM.

As to `Nc1nc(F)c(-c2ccc(OC3CCOCC3)cc2)cc1-c1ccc2c(c1)CCNC2=O` [I-35, 6-(2-amino-6-fluoro-5-(4-((tetrahydro-2H-pyran-4-yl)oxy)phenyl)pyridin-3-yl)-3,4-dihydroisoquinolin-1(2H)-one], the figures for the IC50 (in experiment [1]; at Lck (h)) were 0.1 to 10 nM and greater than 1000 nM, respectively.

Consider `CN1C[C@H]2C[C@@]2(c2ccc(-c3cc(-c4ccc5c(c4)C(C)(C)NC5=O)c(N)nc3F)cc2)C1` [I-36, 5-(2-amino-6-fluoro-5-(4-((1R,5S)-3-methyl-3-azabicyclo[3.1.0]hexan-1-yl)phenyl)pyridin-3-yl)-3,3-dimethylisoindolin-1-one], for which the figures for the IC50 (in experiment [1]; at Lck (h)) were 0.1 to 10 nM and greater than 1000 nM, respectively.

As for `CN1CCN(c2ccc(-c3cc(-c4ccc5c(c4)C(C)(C)NC5=O)c(N)nc3F)cc2)C=N1` [I-37, 5-(2-amino-6-fluoro-5-(4-(1-methyl-5,6-dihydro-1,2,4-triazin-4(1H)-yl)phenyl)pyridin-3-yl)-3,3-dimethylisoindolin-1-one 2,2,2-trifluoroacetate], the IC50 in experiment [1] is 11 to 100 nM; at Lck (h), greater than 1000 nM.

Consider `Nc1nc(F)c(-c2ccc(N3CCN4CCOC[C@H]4C3)cc2)cc1-c1ccc2c(c1)CCNC2=O` [I-38, (R)-6-(2-amino-6-fluoro-5-(4-(hexahydropyrazino[2,1-c][1,4]oxazin-8(1H)-yl)phenyl)pyridin-3-yl)-3,4-dihydroisoquinolin-1(2H)-one], for which the results for the IC50 (in experiment [1]; at Lck (h)) were 0.1 to 10 nM and greater than 1000 nM, respectively.

For the compound `Nc1nc(F)c(-c2ccc(N3CCN4CCOC[C@@H]4C3)cc2)cc1-c1ccc2c(c1)CCNC2=O` [I-39, (S)-6-(2-amino-6-fluoro-5-(4-(hexahydropyrazino[2,1-c][1,4]oxazin-8(1H)-yl)phenyl)pyridin-3-yl)-3,4-dihydroisoquinolin-1(2H)-one], the results for the IC50 (in experiment [1]; at Lck (h)) were 0.1 to 10 nM and greater than 1000 nM, respectively.

For the compound `CN1CCN(c2ccc(-c3cc(-c4ccc5c(c4)CCNC5=O)c(N)nc3F)cc2F)CC1` [I-40, 6-(2-amino-6-fluoro-5-(3-fluoro-4-(4-methylpiperazin-1-yl)phenyl)pyridin-3-yl)-3,4-dihydroisoquinolin-1(2H)-one], the values for the IC50 (in experiment [1]; on Lck (h)) were 0.1 to 10 nM and greater than 1000 nM, respectively.

Consider `CCN1CCN(c2ccc(-c3cc(-c4ccc5c(c4)CCNC5=O)c(N)nc3F)cc2)CC1` [I-41, 6-(2-amino-5-(4-(4-ethylpiperazin-1-yl)phenyl)-6-fluoropyridin-3-yl)-3,4-dihydroisoquinolin-1(2H)-one], for which the IC50 in experiment [1] was 0.1 to 10 nM; at Lck (h), greater than 1000 nM.

As for `CC(C)N1CCN(c2ccc(-c3cc(-c4ccc5c(c4)CCNC5=O)c(N)nc3F)cc2)CC1` [I-42, 6-(2-amino-6-fluoro-5-(4-(4-isopropylpiperazin-1-yl)phenyl)pyridin-3-yl)-3,4-dihydroisoquinolin-1(2H)-one], the IC50 in experiment [1] is 0.1 to 10 nM; on Lck (h), greater than 1000 nM.

As to `Nc1nc(F)c(-c2ccc(C3CCN(CC(F)F)CC3)cc2)cc1-c1ccc2c(c1)CCNC2=O` [I-43, 6-(2-amino-5-(4-(1-(2,2-difluoroethyl)piperidin-4-yl)phenyl)-6-fluoropyridin-3-yl)-3,4-dihydroisoquinolin-1(2H)-one], the IC50 in experiment [1] was 0.1 to 10 nM; at Lck (h), greater than 1000 nM.

`CN1CCC(Oc2ccc(-c3cc(-c4ccc5c(c4)CCNC5=O)c(N)nc3F)cc2)CC1` [I-44, 6-(2-amino-6-fluoro-5-(4-((1-methylpiperidin-4-yl)oxy)phenyl)pyridin-3-yl)-3,4-dihydroisoquinolin-1(2H)-one]: the IC50 is 0.1 to 10 nM in experiment [1] and greater than 1000 nM at Lck (h).

Consider `CN(C)CCN(C)c1ccc(-c2cc(-c3ccc4c(c3)CCNC4=O)c(N)nc2F)cc1` [I-45, 6-(2-amino-5-(4-((2-(dimethylamino)ethyl)(methyl)amino)phenyl)-6-fluoropyridin-3-yl)-3,4-dihydroisoquinolin-1(2H)-one], for which the IC50 in experiment [1] was 0.1 to 10 nM; at Lck (h), greater than 1000 nM.

Turning to `C[C@@H]1CCCN1c1ccc(-c2cc(-c3ccc4c(c3)CCNC4=O)c(N)nc2F)cc1` [I-46, (R)-6-(2-amino-6-fluoro-5-(4-(2-methylpyrrolidin-1-yl)phenyl)pyridin-3-yl)-3,4-dihydroisoquinolin-1(2H)-one], the IC50 in experiment [1] is 11 to 100 nM; on Lck (h) it was greater than 1000 nM.

Turning to `C[C@@H]1CCCN1c1ccc(-c2cc(-c3ccc4c(c3)CCNC4=O)c(N)nc2F)c(F)c1` [I-47, (R)-6-(2-amino-6-fluoro-5-(2-fluoro-4-(2-methylpyrrolidin-1-yl)phenyl)pyridin-3-yl)-3,4-dihydroisoquinolin-1(2H)-one], the IC50 in experiment [1] was 11 to 100 nM; on Lck (h), greater than 1000 nM.

A word on the IC50: it is the concentration that inhibits the measured activity by half.
